Source: ChEMBL document CHEMBL5532655, “Discovery of (R)-4-(8-methoxy-2-methyl-1-(1-phenylethy)-1H-imidazo[4,5-c]quinnolin-7-yl)-3,5-dimethylisoxazole as a potent and selective BET inhibitor for treatment of acute myeloid leukemia (AML) guided by FEP calculation” (Eur J Med Chem, 2024)

Columns and labels:
Test in all cases: cells
MM1.S = conditions: Homo sapiens, 48 h
Description: Antiproliferative activity against human MM1.S cells assessed as inhibition of cell growth incubated for 48 hrs by MTT assay

Jurkat = conditions: Homo sapiens, 48 h
Description: Antiproliferative activity against human Jurkat cells assessed as inhibition of cell growth incubated for 48 hrs by MTT assay

MOLM-13 = conditions: Homo sapiens, MOLM-13, 48 h
Description: Antiproliferative activity against human MOLM-13 cells assessed as inhibition of cell growth incubated for 48 hrs by MTT assay

MV4-11 = conditions: Homo sapiens, MV4-11, 48 h
Description: Antiproliferative activity against human MV4-11 cells assessed as inhibition of cell growth incubated for 48 hrs by MTT assay

Row | SMILES | IC50 (MM1.S) | IC50 (Jurkat) | IC50 (MOLM-13) | IC50 (MV4-11)
1 | COc1ccc(-n2c(C)nc3cnc4cc(-c5ccc(C(C)=O)cc5)c(OC)cc4c32)cc1 | 12.4 µM | > 20 µM | > 20 µM | 11.1 µM
2 | COc1cc2c(cc1-c1ccc(C(F)(F)F)cc1)ncc1nc(C)n([C@@H](C)c3ccccc3)c12 | 11.9 µM | 16.4 µM | 0.91 µM | 5 µM
3 | COc1cc2c(cc1-c1ccc(C(C)=O)cc1)ncc1nc(C)n([C@@H](C)c3ccccc3)c12 | 11.6 µM | 12.9 µM | 4.73 µM | 12.5 µM
4 | COc1cc2c(cc1-c1ccc(F)cc1)ncc1nc(C)n([C@@H](C)c3ccccc3)c12 | 9.48 µM | > 20 µM | 2.49 µM | 2.85 µM
5 | COc1ccc(-n2c(C)nc3cnc4cc(-c5cc(C)cc(C)c5)c(OC)cc4c32)cc1 | 12 µM | > 20 µM | > 20 µM | > 20 µM
6 | COc1ccc(-n2c(C)nc3cnc4cc(-c5ccc(N)cc5)c(OC)cc4c32)cc1 | 9.8 µM | > 20 µM | > 20 µM | > 20 µM
7 | COc1ccc(-n2c(C)nc3cnc4cc(-c5c(C)noc5C)c(OC)cc4c32)cc1 | 9.3 µM | > 20 µM | 11.6 µM | 1.22 µM
8 | COc1cc2c(cc1-c1ccc(C)cc1)ncc1nc(C)n([C@@H](C)c3ccccc3)c12 | 6.02 µM | > 20 µM | 4.99 µM | 8.3 µM
9 | COc1cc2c(cc1-c1c(C)n[nH]c1C)ncc1nc(C)n([C@H](C)c3ccccn3)c12 | > 20 µM | > 20 µM | 0.44 µM | 10.9 µM
10 | COc1ccc(-n2c(C)nc3cnc4cc(-c5ccc(C)cc5)c(OC)cc4c32)cc1 | 6.34 µM | > 20 µM | > 20 µM | > 20 µM
11 | COc1cc2c(cc1-c1ccc3[nH]ccc3c1)ncc1nc(C)n([C@@H](C)c3ccccc3)c12 | 13.7 µM | > 20 µM | 9.7 µM | 2.21 µM
12 | COc1ccc(-c2cc3ncc4nc(C)n([C@@H](C)c5ccccc5)c4c3cc2OC)cc1CO | 13.5 µM | > 20 µM | > 20 µM | 18 µM
13 | COc1ccc(-n2c(C)nc3cnc4cc(-c5cnccc5OC)c(OC)cc4c32)cc1 | 5.67 µM | > 20 µM | > 20 µM | > 20 µM
14 | COc1cc2c(cc1-c1ccc(N)cc1)ncc1nc(C)n([C@@H](C)c3ccccc3)c12 | 4.04 µM | 11.1 µM | 7.16 µM | 3.25 µM
15 | COc1cc2c(cc1-c1cc(C)cc(C)c1)ncc1nc(C)n([C@@H](C)c3ccccc3)c12 | 5.92 µM | > 20 µM | > 20 µM | 6.24 µM
16 | COc1ccncc1-c1cc2ncc3nc(C)n([C@@H](C)c4ccccc4)c3c2cc1OC | 7.4 µM | > 20 µM | 10.9 µM | > 20 µM
17 | COc1cc2c(cc1-c1c(C)n[nH]c1C)ncc1nc(C)n([C@@H](C)c3ccccc3)c12 | 8.92 µM | 16.5 µM | 13.1 µM | 0.53 µM
18 | COc1cc2c(cc1-c1c(C)noc1C)ncc1nc(C)n(-c3ccc(C#N)cc3)c12 | 2.34 µM | > 20 µM | 12.8 µM | 4.63 µM
19 | COc1ccc(-n2c(C)nc3cnc4cc(-c5ccc(F)cc5)c(OC)cc4c32)cc1 | > 20 µM | > 20 µM | > 20 µM | 11 µM
20 | COc1cc2c(cc1-c1cnn(C)c1)ncc1nc(C)n([C@H](C)c3ccccc3)c12 | 6.9 µM | > 20 µM | > 20 µM | 6.83 µM
21 | COc1cc2c(cc1-c1c(C)noc1C)ncc1nc(C)n(C3CCOCC3)c12 | 1.85 µM | > 20 µM | 5.15 µM | 1.02 µM
22 | COc1ccc(-n2c(C)nc3cnc4cc(-c5ccc(O)cc5)c(OC)cc4c32)cc1 | 2.44 µM | 15 µM | 18.3 µM | 4.96 µM
23 | COc1ccc(-n2c(C)nc3cnc4cc(-c5ccc(C#N)cc5)c(OC)cc4c32)cc1 | 7.9 µM | > 20 µM | > 20 µM | 5.39 µM

Row | SMILES | IC50 (MM1.S) | IC50 (Jurkat) | IC50 (MOLM-13) | IC50 (MV4-11)
24 | COc1ccc(-n2c(C)nc3cnc4cc(-c5ccc(C(F)(F)F)cc5)c(OC)cc4c32)cc1 | > 20 µM | > 20 µM | > 20 µM | 5.64 µM
25 | COc1cc2c(cc1-c1c(C)noc1C)ncc1nc(C)n([C@H](C)c3ccccn3)c12 | 3.55 µM | 16.1 µM | 6.4 µM | 1.29 µM
26 | COc1cc2c(cc1-c1c(C)noc1C)ncc1nc(C)n([C@@H](C)c3ccccc3)c12 | 11.2 µM | 16.6 µM | 12.5 µM | 2.02 µM
27 | COc1cc2c(cc1-c1c(C)noc1C)ncc1nc(C)n(-c3ccc(CC#N)cc3)c12 | 7.06 µM | > 20 µM | 10.1 µM | 1.05 µM
28 | COc1ccc(-n2c(C)nc3cnc4cc(-c5cnn(C)c5)c(OC)cc4c32)cc1 | 3.23 µM | > 20 µM | > 20 µM | 9.71 µM
29 | COc1ccc(-n2c(C)nc3cnc4cc(-c5cnc6[nH]ccc6c5)c(OC)cc4c32)cc1 | 13 µM | 4.71 µM | > 20 µM | 18.6 µM
30 | COc1cc2c(cc1-c1ccc(N)nc1)ncc1nc(C)n([C@@H](C)c3ccccc3)c12 | 5.69 µM | 15.2 µM | 4.74 µM | 1.4 µM
31 | COc1ccc(-n2c(C)nc3cnc4cc(-c5ccc6nc[nH]c6c5)c(OC)cc4c32)cc1 | 5.8 µM | 17.2 µM | > 20 µM | 5.33 µM
32 | COc1ccc(-c2cc3ncc4nc(C)n(-c5ccc(OC)cc5)c4c3cc2OC)cc1 | 12.5 µM | > 20 µM | 15.6 µM | 4.41 µM
33 | COc1ccc(-n2c(C)nc3cnc4cc(-c5ccc6[nH]ccc6c5)c(OC)cc4c32)cc1 | 9.8 µM | 15.1 µM | > 20 µM | 9.93 µM
34 | COc1ccc(-n2c(C)nc3cnc4cc(-c5ccc(OC)c(CO)c5)c(OC)cc4c32)cc1 | 11 µM | > 20 µM | > 20 µM | 17.9 µM
35 | COc1cc2c(cc1-c1cnn(C)c1)ncc1nc(C)n([C@@H](C)c3ccccc3)c12 | 11.5 µM | 2.14 µM | > 20 µM | 0.62 µM
36 | COc1cc2c(cc1-c1cnn(C)c1)ncc1nc(C)n([C@H](C)c3ccccn3)c12 | 5.84 µM | 9.87 µM | 3.55 µM | 2.6 µM
37 | COc1ccc(-n2c(C)nc3cnc4cc(-c5c(C)n[nH]c5C)c(OC)cc4c32)cc1 | 3.12 µM | > 20 µM | > 20 µM | 10.6 µM
38 | COc1cc2c(cc1-c1ccc(C#N)cc1)ncc1nc(C)n([C@@H](C)c3ccccc3)c12 | 9.09 µM | 4.53 µM | 10.1 µM | 5 µM
39 | COc1ccc(-n2c(C)nc3cnc4cc(-c5ccc(N)nc5)c(OC)cc4c32)cc1 | 5.78 µM | 11.2 µM | 11.3 µM | 9.21 µM
40 | COc1cc2c(cc1-c1ccc3nc[nH]c3c1)ncc1nc(C)n([C@@H](C)c3ccccc3)c12 | 8.69 µM | > 20 µM | 19.1 µM | 10.4 µM
41 | COc1ccc(-n2c(C)nc3cnc4cc(-c5cnc(N)nc5)c(OC)cc4c32)cc1 | > 20 µM | > 20 µM | > 20 µM | > 20 µM
42 | COc1cc2c(cc1-c1cnc3[nH]ccc3c1)ncc1nc(C)n(C(C)c3ccccc3)c12 (stereo not given) | 10.1 µM | 15.6 µM | 6.85 µM | 6.13 µM
43 | COc1cc2c(cc1-c1ccc(O)cc1)ncc1nc(C)n([C@@H](C)c3ccccc3)c12 | 5.79 µM | > 20 µM | 8.42 µM | 2.25 µM
44 | COc1cc2c(cc1-c1cnc(N)nc1)ncc1nc(C)n([C@@H](C)c3ccccc3)c12 | 9.23 µM | > 20 µM | > 20 µM | > 20 µM
45 | COc1ccc(-c2cc3ncc4nc(C)n([C@@H](C)c5ccccc5)c4c3cc2OC)cc1 | 4.84 µM | 5.46 µM | 4.12 µM | 13.1 µM
